Where two headings read alike, the source gives them in different places.
Legend:
[1] = cited from earlier work
[2] = cited from earlier work; remark: listed apart in the source
cell membrane = conditions: Xu & McLeod 2001; cited from earlier work
αHL = αHL (Staphylococcus aureus, UniProt P09616); conditions: pH 7; cited from earlier work
WT αHL pore = WT αHL pore (Staphylococcus aureus, UniProt P09616); type: biochemical, staphylococcal; conditions: pH 8
Chain of WT αHL pore (P09616 27-319 limits assumed): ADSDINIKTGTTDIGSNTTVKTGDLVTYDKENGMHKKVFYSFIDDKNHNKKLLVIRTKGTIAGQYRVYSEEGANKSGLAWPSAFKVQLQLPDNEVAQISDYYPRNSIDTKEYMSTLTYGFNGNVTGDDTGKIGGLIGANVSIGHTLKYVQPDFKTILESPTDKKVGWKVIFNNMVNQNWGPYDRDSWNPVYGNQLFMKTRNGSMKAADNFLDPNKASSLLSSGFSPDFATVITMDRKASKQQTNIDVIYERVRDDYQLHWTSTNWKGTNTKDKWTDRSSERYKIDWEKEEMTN

Chain of αHL (P09616 27-319 limits assumed): as above

For `O=C(O)CN(CCN(CC(=O)O)CC(=O)O)CC(=O)O` [EDTA], the “koff for Ca^2+ dissociation” value ([1]; Naraghi 1997, Johnson et al. 1999) is listed as under 1 s⁻¹.
In the case of `CC/C(=C(\c1ccc(O)cc1)c1ccc(OCCN(C)C)cc1)c1ccc(C(C)C)cc1` [Miproxifene, miproxifene], the “water solubility less than miproxifene phosphate” value ([2]; relative to miproxifene phosphate) is given as 1,000 times.
In the case of `COc1cccc2c1C(=O)c1c(O)c3c(c(O)c1C2=O)C[C@@](O)(C(=O)CO)C[C@@H]3O[C@H]1C[C@H](N)[C@H](O)[C@H](C)O1` [doxorubicin], the “permeability to the cell membrane” value (cell membrane) is given as “able to access the cytosol and is”.
For `OC[C@H]1O[C@@H]2O[C@H]3[C@H](O)[C@@H](O)[C@@H](O[C@H]4[C@H](O)[C@@H](O)[C@@H](O[C@H]5[C@H](O)[C@@H](O)[C@@H](O[C@H]6[C@H](O)[C@@H](O)[C@@H](O[C@H]7[C@H](O)[C@@H](O)[C@@H](O[C@H]8[C@H](O)[C@@H](O)[C@@H](O[C@H]9[C@H](O)[C@@H](O)[C@@H](O[C@H]1[C@H](O)[C@H]2O)O[C@@H]9CO)O[C@@H]8CO)O[C@@H]7CO)O[C@@H]6CO)O[C@@H]5CO)O[C@@H]4CO)O[C@@H]3CO` [γCD, γ-cyclodextrin], the blocking amplitude (αHL) is given as about 60%, the dissociation rate (αHL) is given as 2.0 s⁻¹ and the “current blockade (blocking) amplitude, mean±s.d.” value (WT αHL pore) is given as 63.7±2.0%. For the same compound, the “dissociation rate, mean±s.d.” value (WT αHL pore) was 4.0 ± 0.6 s⁻¹.
For fluo-4, the “koff for Ca^2+ dissociation” value [1] is listed as about 400 s⁻¹.
For miproxifene phosphate, the “aqueous solubility greater than miproxifene” value ([2]; relative to miproxifene, Rautio et al. 2008) is listed as 1,000 fold.
